This note sets out measurements from patent publication US9896659B2, “Methods, kits, and compositions for stem cell self-renewal” (STOWERS INSTITUTE FOR MEDICAL RESEARCH, priority 2011, dated 2018).

Entries after “also recorded” stand apart in the source; their conditions may differ.

The subject of assay [1] is LSK Flk2^− cells. Kind of assay: 10-day culture of bone marrow MNCs with PI3K inhibitor, CHIR99021 or without insulin, expansion of LSK Flk2^− cells. The class given is cell-based, mouse. The settings on record: 10 days culture; 250 nM CHIR99021; NVP-BEZ235 at indicated concentrations.
Assay [2] has as its system lethally irradiated CD45.1 recipient mice. Kind of assay: Competitive repopulation assay of 14-day cultures. The settings on record: for Average repopulation: long-term engraftment (FIGS. 5 and 13). It is filed as in vivo, mouse. The protocol: For the experimental results shown in FIG. 13A, sorted LSK Flk2^− cells and unsorted MNCs containing a known quantity of LSK Flk2^− cells (CD45.2^+) were cultured for 14 days in ST media with and without CHIR99021. The cultured product of 100 sorted or 5 unsorted LSK Flk2^− cells per mouse were transplanted into lethally irradiated recipients (CD45.1^+). 5 freshly isolated, unsorted LSK Flk2^− cells per mouse were transplanted into a separate group. 1×10^5 freshly isolated CD45.1^+ competitor/radioprotective cells were also added per mouse. Peripheral blood analysis of recipients at 16 weeks post-transplant depicts % chimerism.
(§1) Bone marrow mononuclear cells (MNCs) were fractionated and the concentration of lineage marker negative, Sca-1^+, c-Kit^+, Flk2^− (LSKF^−) cells was determined. MNCs containing a known quantity of LSKF^− cells were cultured for 14 days in media containing SCF and Tpo (ST), ST media with 250 nM CHIR99021 or ST media with 2 mM lithium chloride (LiCl) as indicated. After 14 days, the cellular product of these cultures was transplanted into lethally-irradiated recipients (10 Gray units) at a dosage corresponding to an original input into culture of MNCs containing 5 LSKF^− cells per mouse for each group. 1×10^5 competitor bone marrow cells congenic with the hosts (CD45.1^+) were included per mouse. At 4 weeks post-transplant, peripheral blood was collected from each transplant recipient, and donor vs. host derived hematopoietic cells were determined by FACS analysis.
as §1, with “At 16” for “At 4”
Cells were incubated at 37° C. with 5% CO2 and 5% O2 (balance N2) for 14 days. […]

Assay [3] deals with lethally irradiated recipients. Kind of assay: Limiting-dilution competitive repopulating unit (CRU) assay. The class given is in vivo, mouse. The settings on record: CHIR99021 versus ST media (2/0.4). Here is the method: FIGS. 27A-C show ex vivo expansion of normal, long-term repopulating HSC. MNCs containing a known quantity of LSK Flk2^− cells were cultured for 14 days with and without CHIR99021. The cultured progeny of MNCs containing a pre-culture dosage of 0.1, 0.3 or 1.0 LSK Flk2^− cells were transplanted into lethally irradiated recipients along with 1×10^5 rescue/competitor cells (n=10 for each of 6 groups). Peripheral blood was analyzed at 16 weeks post-transplant and competitive repopulating unit (CRU) frequency was determined using L-Calc software (Stem Cell Technologies, Inc.) based on Poisson statistics (Zhang, C. C. & Lodish, H. F. Murine hematopoietic stem cells change their surface phenotype during ex vivo expansion. Blood, Vol. 105, pages 4314-4320 (2005); Miller, C. L. & Eaves, C. J. Expansion in vitro of adult murine hematopoietic stem cells with transplantable lympho-myeloid reconstituting ability. Proceedings of the National Academy of Sciences of the United States of America, Vol. 94, pages 13648-13653 (1997)). […] Peripheral blood was analyzed for percent donor repopulation at 16 weeks post-1°, 2°, and 3° transplant (upper panels) and percent mature donor-derived B, T and myeloid cells (lower panels). […]

On to `Cc1c[nH]c(-c2cnc(NCCNc3ccc(C#N)cn3)nc2-c2ccc(Cl)cc2Cl)n1` [CHIR99021], for which, in assay [1], the “Expansion of LSK Flk2^− cells” value was “increased the expansion”. Further, the “Repopulation capacity of ex vivo expanded HSCs” value in assay [2] (4 weeks post-transplant, 250 nM CHIR99021 or 2 mM LiCl in ST media, 14 days) was “enhance repopulation capacity of ex vivo expanded hematopoietic stem cells”. The “Long-term repopulation / engraftment of ex vivo expanded HSCs” value in assay [2] (16 weeks post-transplant, 250 nM CHIR99021 or 2 mM LiCl in ST media, 14 days) is given as “enhance long-term repopulation capacity of ex vivo expanded hematopoietic stem cells; also recorded: enhances long-term engraftment of ex vivo expanded HSCs”. The Average repopulation worked out at 12.3% in assay [2] (100 sorted putative HSCs cultured 14 days) and 64.8% in assay [2] (unsorted MNC cultures, 14 days). Moreover, the “Increase of CRU frequency” value in assay [3] was determined as 5 fold.
